How the values were obtained:
[1] = assay type: physicochemical; conditions: pH 7.4
Procedure: The primary difference between the members of the Rubbn family of complexes is the number of methylene groups in the flexible linking chain. […] Lipophilicity is a significant factor affecting the biological activity of most therapeutic compounds, as it relates to the capacity of the drug to penetrate through the cell membrane. The standard octanol-water partition coefficient (logP) was determined for the Rubbn series (F. Lombardo, B. Faller, M. Shalaeva, I. Tetko and S. Tilton, Methods and Principles in Medicinal Chemistry, 2008, 37, 407) parent model mononuclear species ([Ru(phen)2(Me2bpy)]^2+) and the trinuclear and tetranuclear complexes.
The partition coefficients (logP) were measured using the shake flask technique: each ruthenium complex (at both 0.05 and 0.1 mM) was dissolved in the water phase (0.2 M Na2HPO4—NaH2PO4 buffer, pH=7.4) and an equivalent volume of n-octanol was added.
The two phases were mutually saturated by shaking overnight at ambient temperature and then were allowed to separate on standing. The concentration of the metal complex in each phase was determined spectrophotometrically at l=450 nm.

E. coli = test: Minimum Bactericidal Concentration (MBC) assay (CAMHB); assay type: cell-based, Escherichia coli; conditions: Table 4, all ΔΔ- enantiomers
Procedure: (§1) Further MIC assays and Minimum Bactericidal Concentration (MBC) assays were conducted against Gram-positive and Gram-negative bacterial strains using symmetric and non-symmetric, inert and labile complexes.

MRSA = test: as above; assay type: cell-based, methicillin-resistant S. aureus; conditions: Table 4, all ΔΔ- enantiomers
Procedure: as §1

[2] = test system: MRSA (a wild clinical strain from the JCU culture collection); test: MIC determination, broth micro-dilution (CAMHB); assay type: cell-based, methicillin-resistant S. aureus; conditions: Table 4; CAMHB; all ΔΔ- enantiomers
Outline: (§2)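 Ruthenium complexes two-fold serially diluted in cation-adjusted Mueller Hinton broth, final range 0.25–128 […], with equal volume of bacterial suspension; duplicate determinations, gentamicin as positive control. Plates incubated 37° C for 24 h; MIC by standard micro-dilution.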

[3] = test system: Plasmodium falciparum strain D6; test: [3H]-hypoxanthine growth inhibition assay; assay type: cell-based; conditions: mean (SD), 96 h exposure, chloroquine-sensitive strain; for IC50: read-out: IC50 D6; for IC90: read-out: IC90 D6
Procedure: (§3) The in vitro antimalarial activities of two of the dinuclear ruthenium(II) complexes and chloroquine were assessed by exposing P. falciparum strains to ten serially diluted two-fold concentrations of each compound. Parasite growth was measured by uptake of tritiated [^3H]-hypoxanthine into newly synthesised parasitic DNA.
(§4) The [^3H]-hypoxanthine growth inhibition assay (Desjardins et al., 1979 Antimicrobial Agents Chemother 16: 710-718) was used to evaluate the in vitro antimalarial activity of the compounds. Briefly, synchronised parasite cultures (>90% rings, 6 to 8 h post invasion) in [^3H]-RPMI-LPLF complete medium with 0.5% parasitaemia and 2% haematocrit were exposed to the compounds at ten two-fold concentrations, ranging from 10,000 to 20 nM in 96-well microtitre plates. Chloroquine was used as a reference drug. Uninfected RBCs at 2% haematocrit were used as background controls. For the 96 h exposure period, the plates were incubated in the gas mixture at 37° C. for approximately 48 h, followed by the addition of 0.2 μCi of ^3H-hypoxanthine (GE Healthcare, Amersham) in [^3H]-RPMI-1640-LPLF to each well and a further 48 h of incubation and then frozen at −20° C. Plates were thawed and harvested using Tomtech Harvester 96 Mach III and radioactive counts were obtained using Wallac TriLux 1450 Microbeta Liquid Scintillation Counter (Perkin Elmer, USA). All assays were performed in triplicate for each strain and at least on two separate occasions.
(§5) Tritiated hypoxanthine uptake data were analysed in Graphpad Prism V5.0 software (GraphPad Software Inc. USA). The concentrations of the dinuclear ruthenium(II) complexes and chloroquine were transformed into logarithmic values. After subtracting the background values, the data from drug-treated wells were normalised against drug-free control wells. Non-linear regression analysis was carried out of the compound's concentration versus parasitic hypoxanthine incorporation. The in vitro antimalarial activity of the compound is defined as inhibitory concentrations (IC50) and (IC90) that cause 50% and 90% inhibition of parasite growth as determined by measuring [^3H]-hypoxanthine incorporation.

[4] = test system: Plasmodium falciparum strain W2; test: [3H]-hypoxanthine growth inhibition assay; assay type: cell-based; conditions: mean (SD), 96 h exposure, chloroquine-resistant strain; for IC50: read-out: IC50 W2; for IC90: read-out: IC90 W2
Procedure: as §3, §4, §5

E. coli ATCC 25922 = test: MIC determination, broth micro-dilution (CAMHB); assay type: cell-based, Escherichia coli; conditions: Table 4; CAMHB; all ΔΔ- enantiomers
Outline: as §2

P. aeruginosa ATCC 27853 = test: MIC determination, broth micro-dilution (CAMHB); assay type: cell-based, Pseudomonas aeruginosa; conditions: Table 4; CAMHB; all ΔΔ- enantiomers
Outline: as §2

S. aureus = test: Minimum Bactericidal Concentration (MBC) assay (CAMHB); assay type: cell-based, Staphylococcus aureus; conditions: Table 4, all ΔΔ- enantiomers
Procedure: as §1

S. aureus ATCC 25923 = test: MIC determination, broth micro-dilution (CAMHB); assay type: cell-based, Staphylococcus aureus; conditions: Table 4; CAMHB; all ΔΔ- enantiomers
Outline: as §2

P. aeruginosa = test: Minimum Bactericidal Concentration (MBC) assay (CAMHB); assay type: cell-based, Pseudomonas aeruginosa; conditions: Table 4, all ΔΔ- enantiomers
Procedure: as §1

Compound	logP [1]	MBC E. coli (E. coli) [µg/mL]	MBC MRSA (MRSA) [µg/mL]	MIC MRSA [2]	IC50 [3] [nM]	IC90 [3] [nM]	IC50 [4] [nM]	IC90 [4] [nM]	MIC E. coli (E. coli ATCC 25922)	MIC P. aeruginosa (P. aeruginosa ATCC 27853)	MBC S. aureus (S. aureus) [µg/mL]	MIC S. aureus (S. aureus ATCC 25923)	MBC P. aeruginosa (P. aeruginosa) [µg/mL]
Cc1ccnc(-c2cc(CCCCCCCCCCCCCCCCc3ccnc(-c4cc(C)ccn4)c3)ccn2)c1.[Cl-].[Cl-].[Cl-].[Cl-].[Ru+2].[Ru+2].c1cnc2c(c1)ccc1cccnc12.c1cnc2c(c1)ccc1cccnc12.c1cnc2c(c1)ccc1cccnc12.c1cnc2c(c1)ccc1cccnc12 [Rubb16, [{Ru(phen)2}2(μ-bb16)]Cl4]	−1.9	2	2	1	226	413	289	444	2	8	1	1	8
[{Ru(phen)2}2(μ-bb12)] [Rubb12]	−2.7	2	2	1	733	1250	739	1400	2	16	2	1	32

— patent US20130172308A1, “ANTIMICROBIAL AGENTS” (John Grant COLLINS, priority 2011, published 2013)
